Reference: PubChem BioAssay (NCI)
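Tested at 5 concentrations; 48 h exposure; 96-well plates; endpoints linearly interpolated, else capped at highest concentration. Here, GI50 denotes the concentration required for 50% inhibition of growth. The concentration for full growth arrest is given as TGI.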

Columns and labels:
Test in all cases: NCI tumour cell line growth inhibition, 48 h
786-0 renal = tested on: 786-0 renal
A498 renal = tested on: A498 renal
A549 NSCLC = tested on: A549 NSCLC
ACHN renal = tested on: ACHN renal
BT-549 breast = tested on: BT-549 breast
CAKI-1 renal = tested on: CAKI-1 renal
CCRF-CEM leukemia = tested on: CCRF-CEM leukemia
COLO 205 colon = tested on: COLO 205 colon
DU-145 prostate = tested on: DU-145 prostate
HCC-2998 colon = tested on: HCC-2998 colon
HCT-116 colon = tested on: HCT-116 colon
HCT-15 colon = tested on: HCT-15 colon
HL-60(TB) leukemia = tested on: HL-60(TB) leukemia
HOP-62 NSCLC = tested on: HOP-62 NSCLC
HOP-92 NSCLC = tested on: HOP-92 NSCLC
HS 578T breast = tested on: HS 578T breast
HT29 colon = tested on: HT29 colon
IGROV1 ovarian = tested on: IGROV1 ovarian
K-562 leukemia = tested on: K-562 leukemia
KM12 colon = tested on: KM12 colon
LOX IMVI melanoma = tested on: LOX IMVI melanoma
M14 melanoma = tested on: M14 melanoma
MALME-3M melanoma = tested on: MALME-3M melanoma
MCF7 breast = tested on: MCF7 breast
MDA-MB-231 breast = tested on: MDA-MB-231 breast
MDA-MB-435 = tested on: MDA-MB-435
MOLT-4 leukemia = tested on: MOLT-4 leukemia
NCI-H226 lung = tested on: NCI-H226 lung
NCI-H23 lung = tested on: NCI-H23 lung
NCI-H460 lung = tested on: NCI-H460 lung
NCI-H522 lung = tested on: NCI-H522 lung
NCI/ADR-RES ovarian = tested on: NCI/ADR-RES ovarian
OVCAR-3 ovarian = tested on: OVCAR-3 ovarian
OVCAR-4 ovarian = tested on: OVCAR-4 ovarian
OVCAR-5 ovarian = tested on: OVCAR-5 ovarian
OVCAR-8 ovarian = tested on: OVCAR-8 ovarian
PC-3 prostate = tested on: PC-3 prostate
RPMI-8226 leukemia = tested on: RPMI-8226 leukemia
RXF 393 renal = tested on: RXF 393 renal
SF-268 CNS = tested on: SF-268 CNS
SF-295 CNS = tested on: SF-295 CNS
SF-539 CNS = tested on: SF-539 CNS
SK-MEL-2 melanoma = tested on: SK-MEL-2 melanoma
SK-MEL-28 melanoma = tested on: SK-MEL-28 melanoma
SK-MEL-5 melanoma = tested on: SK-MEL-5 melanoma
SK-OV-3 ovarian = tested on: SK-OV-3 ovarian
SN12C renal = tested on: SN12C renal
SNB-19 CNS = tested on: SNB-19 CNS
SNB-75 CNS = tested on: SNB-75 CNS
SR leukemia = tested on: SR leukemia
SW-620 colon = tested on: SW-620 colon
T-47D breast = tested on: T-47D breast
TK-10 renal = tested on: TK-10 renal
U251 CNS = tested on: U251 CNS
UACC-257 melanoma = tested on: UACC-257 melanoma
UACC-62 melanoma = tested on: UACC-62 melanoma
UO-31 renal = tested on: UO-31 renal

## O=CN/N=C/c1ccc(Cl)c([N+](=O)[O-])c1
786-0 renal
  GI50: 0.544 µM
  TGI: > 100 µM
A498 renal
  GI50: 2.14 µM
  TGI: 90.5 µM
A549 NSCLC
  GI50: 0.337 µM
  TGI: > 100 µM
ACHN renal
  GI50: 5.17 µM
  TGI: > 100 µM
BT-549 breast
  GI50: 3.31 µM
  TGI: 20 µM
CAKI-1 renal
  GI50: 4.04 µM
  TGI: > 100 µM
CCRF-CEM leukemia
  GI50: 0.243 µM
  TGI: 72.6 µM
COLO 205 colon
  GI50: 0.11 µM
  TGI: 15.4 µM
DU-145 prostate
  GI50: 0.401 µM
  TGI: > 100 µM
HCC-2998 colon
  GI50: 0.37 µM
  TGI: 19.6 µM
HCT-116 colon
  GI50: 0.0536 µM
  TGI: > 100 µM
HCT-15 colon
  GI50: 4.14 µM
  TGI: > 100 µM
HL-60(TB) leukemia
  GI50: 0.125 µM
  TGI: 18.4 µM
HOP-62 NSCLC
  GI50: 1.47 µM
  TGI: 49.7 µM
HOP-92 NSCLC
  GI50: 1.24 µM
  TGI: 21.1 µM
HS 578T breast
  GI50: 9.41 µM
  TGI: 40.7 µM
HT29 colon
  GI50: 0.0457 µM
  TGI: 14.4 µM
IGROV1 ovarian
  GI50: 0.0728 µM
  TGI: 21.9 µM
K-562 leukemia
  GI50: 0.197 µM
  TGI: > 100 µM
KM12 colon
  GI50: 0.228 µM
  TGI: 15.1 µM
LOX IMVI melanoma
  GI50: 0.111 µM
  TGI: 13.7 µM
M14 melanoma
  GI50: 0.513 µM
  TGI: > 46.5 µM
MALME-3M melanoma
  GI50: 3.19 µM
  TGI: 33 µM
MCF7 breast
  GI50: 0.351 µM
  TGI: 58.6 µM
MDA-MB-231 breast
  GI50: 1.54 µM
  TGI: 27.3 µM
MDA-MB-435
  GI50: 0.0611 µM
  TGI: 18.6 µM
MOLT-4 leukemia
  GI50: 0.577 µM
  TGI: 46.8 µM
NCI-H226 lung
  GI50: 0.725 µM
  TGI: > 100 µM
NCI-H23 lung
  GI50: 0.396 µM
  TGI: 48.1 µM
NCI-H460 lung
  GI50: 0.0427 µM
  TGI: 14.8 µM
NCI-H522 lung
  GI50: 0.451 µM
  TGI: 19.9 µM
NCI/ADR-RES ovarian
  GI50: > 100 µM
  TGI: > 100 µM
OVCAR-3 ovarian
  GI50: 0.555 µM
  TGI: 20.7 µM
OVCAR-4 ovarian
  GI50: 0.684 µM
  TGI: 60.6 µM
OVCAR-5 ovarian
  GI50: 0.189 µM
  TGI: > 100 µM
OVCAR-8 ovarian
  GI50: 0.567 µM
  TGI: > 100 µM
PC-3 prostate
  GI50: 0.0249 µM
  TGI: 13.2 µM
RPMI-8226 leukemia
  GI50: 0.439 µM
  TGI: 17.4 µM
RXF 393 renal
  GI50: 0.399 µM
  TGI: > 100 µM
SF-268 CNS
  GI50: 0.172 µM
  TGI: 18.4 µM
SF-295 CNS
  GI50: 0.623 µM
  TGI: > 79.9 µM
SF-539 CNS
  GI50: 0.309 µM
  TGI: 13.7 µM
SK-MEL-2 melanoma
  GI50: 5.43 µM
  TGI: 22.6 µM
SK-MEL-28 melanoma
  GI50: 0.899 µM
  TGI: 24 µM
SK-MEL-5 melanoma
  GI50: 0.402 µM
  TGI: 3.7 µM
SK-OV-3 ovarian
  GI50: 7.33 µM
  TGI: > 100 µM
SN12C renal
  GI50: 0.503 µM
  TGI: 21.9 µM
SNB-19 CNS
  GI50: 0.518 µM
  TGI: 46.6 µM
SNB-75 CNS
  GI50: 0.787 µM
  TGI: 31.5 µM
SR leukemia
  GI50: 0.126 µM
  TGI: 22.6 µM
SW-620 colon
  GI50: 0.0596 µM
  TGI: > 100 µM
T-47D breast
  GI50: 2.92 µM
  TGI: 51.7 µM
TK-10 renal
  GI50: 2.4 µM
  TGI: 71.3 µM
U251 CNS
  GI50: 0.0617 µM
  TGI: 25.8 µM
UACC-257 melanoma
  GI50: 0.618 µM
  TGI: 27.4 µM
UACC-62 melanoma
  GI50: 0.327 µM
  TGI: 14.6 µM
UO-31 renal
  GI50: 54.1 µM
  TGI: > 100 µM

## OCc1ccc(N(Cc2ccc(F)cc2)CC2CC2)cc1Cl
786-0 renal
  GI50: 6.8 µM
  TGI: 21.3 µM
A498 renal
  GI50: 0.0363 µM
  TGI: 0.154 µM
A549 NSCLC
  GI50: 3.16 µM
  TGI: 16.9 µM
ACHN renal
  GI50: 11.7 µM
  TGI: 24 µM
BT-549 breast
  GI50: 14.3 µM
  TGI: 28.2 µM
CAKI-1 renal
  GI50: 6.54 µM
  TGI: 21.9 µM
CCRF-CEM leukemia
  GI50: 15.6 µM
  TGI: 39.9 µM
COLO 205 colon
  GI50: 5.4 µM
  TGI: 17.4 µM
DU-145 prostate
  GI50: 13.3 µM
  TGI: 26.4 µM
HCC-2998 colon
  GI50: 8.82 µM
  TGI: 22.4 µM
HCT-116 colon
  GI50: 0.254 µM
  TGI: 11 µM
HCT-15 colon
  GI50: 10.3 µM
  TGI: 22.9 µM
HL-60(TB) leukemia
  GI50: 5.06 µM
  TGI: 26.3 µM
HOP-62 NSCLC
  GI50: 3.09 µM
  TGI: 16.2 µM
HOP-92 NSCLC
  GI50: 1.61 µM
  TGI: 11.3 µM
HS 578T breast
  GI50: 14.7 µM
  TGI: 38.9 µM
HT29 colon
  GI50: 6.49 µM
  TGI: 20.3 µM
IGROV1 ovarian
  GI50: 0.176 µM
  TGI: 1.19 µM
K-562 leukemia
  GI50: 3.12 µM
  TGI: 17.8 µM
KM12 colon
  GI50: 12.9 µM
  TGI: 25.8 µM
LOX IMVI melanoma
  GI50: 13.2 µM
  TGI: 26.3 µM
M14 melanoma
  GI50: 14.5 µM
  TGI: 29.8 µM
MALME-3M melanoma
  GI50: 14.6 µM
  TGI: 29.9 µM
MCF7 breast
  GI50: 0.585 µM
  TGI: 12.6 µM
MDA-MB-231 breast
  GI50: 11.5 µM
  TGI: 24.3 µM
MDA-MB-435
  GI50: 15.7 µM
  TGI: 31.2 µM
MOLT-4 leukemia
  GI50: 13.7 µM
  TGI: 34.9 µM
NCI-H226 lung
  GI50: 0.0419 µM
  TGI: 0.0943 µM
NCI-H23 lung
  GI50: 4.74 µM
  TGI: 20.2 µM
NCI-H460 lung
  GI50: 0.57 µM
  TGI: 9.47 µM
NCI-H522 lung
  GI50: 11.5 µM
  TGI: 26.3 µM
NCI/ADR-RES ovarian
  GI50: 12.1 µM
  TGI: 28.8 µM
OVCAR-3 ovarian
  GI50: 1.31 µM
  TGI: 4.94 µM
OVCAR-4 ovarian
  GI50: 0.511 µM
  TGI: 7.34 µM
OVCAR-5 ovarian
  GI50: 0.191 µM
  TGI: 0.794 µM
OVCAR-8 ovarian
  GI50: 11.8 µM
  TGI: 25.3 µM
PC-3 prostate
  GI50: 12.1 µM
  TGI: 25.7 µM
RPMI-8226 leukemia
  GI50: 5.47 µM
  TGI: 36 µM
RXF 393 renal
  GI50: 1.29 µM
  TGI: 8.48 µM
SF-268 CNS
  GI50: 14.7 µM
  TGI: 28.7 µM
SF-295 CNS
  GI50: 1.2 µM
  TGI: 11.7 µM
SF-539 CNS
  GI50: 14.7 µM
  TGI: 28.2 µM
SK-MEL-2 melanoma
  GI50: 5.39 µM
  TGI: 19 µM
SK-MEL-28 melanoma
  GI50: 13.1 µM
  TGI: 25.9 µM
SK-MEL-5 melanoma
  GI50: 3.72 µM
  TGI: 16.6 µM
SK-OV-3 ovarian
  GI50: 10.6 µM
  TGI: 22.7 µM
SN12C renal
  GI50: 9.04 µM
  TGI: 21.8 µM
SNB-19 CNS
  GI50: 12.3 µM
  TGI: 25.4 µM
SNB-75 CNS
  GI50: 10.8 µM
  TGI: 23.1 µM
SR leukemia
  GI50: 13.4 µM
  TGI: 34 µM
SW-620 colon
  GI50: 2.38 µM
  TGI: 16.2 µM
T-47D breast
  GI50: 0.271 µM
  TGI: 2.86 µM
TK-10 renal
  GI50: 0.0609 µM
  TGI: 0.398 µM
U251 CNS
  GI50: 1.48 µM
  TGI: 14 µM
UACC-257 melanoma
  GI50: 0.228 µM
  TGI: 1.03 µM
UACC-62 melanoma
  GI50: 0.263 µM
  TGI: 1.74 µM
UO-31 renal
  GI50: 3.43 µM
  TGI: 15.6 µM
